# Test results taken from patent US12545637B2, “Extrahepatic targeted cationic lipid compound with high efficiency and low toxicity and its composition” (BEIJING YOUCARE KECHUANG PHARMACEUTICAL TECHNOLOGY CO., LTD., priority 2023, dated 2026).
# Values joined by “and” are separate entries in the source; they are usually repeats but may differ in a detail not shown here. Equal entries are not always repeated.
# What was measured:
# Assay type in all cases: cell-based
# 293T cells [1] = assay: Cell survival rate assay (CCK-8); settings: for Cell survival rate: LNP with 1.5 μg Fluc-mRNA, 24 hours, CCK-8; for cell survival rate higher than ALC-0315: difference vs ALC-0315; for cell survival rate higher than HIMA: difference vs HIMA (HHMA); for cell survival rate higher than Lipofectamine 3000: difference vs Lipofectamine 3000; for cell survival rate higher than SM-102: difference vs SM-102; for cell survival rate higher than YK-404: difference vs YK-404; for cell survival rate higher than YK-405: difference vs YK-405; for cell survival rate higher than YK-406: difference vs YK-406; for cell survival rate higher than YK-408: difference vs YK-408; for cell survival rate higher than YK-409: difference vs YK-409; for cell survival rate higher than YK-410: difference vs YK-410; for cell survival rate higher than YK-411: difference vs YK-411; for cell survival rate higher than YK-412: difference vs YK-412; for cell survival rate higher than YK-413: difference vs YK-413; for cell survival rate higher than YK-414: difference vs YK-414; for cell survival rate higher than YK-415: difference vs YK-415; for cell survival rate higher than YK-416: difference vs YK-416; for cell survival rate higher than YK-417: difference vs YK-417; for cell survival rate higher than YK-418: difference vs YK-418; for cell survival rate higher than YK-419: difference vs YK-419; for cell survival rate higher than YK-420: difference vs YK-420; for cell survival rate higher than YK-421: difference vs YK-421; for cell survival rate higher than YK-424: difference vs YK-424; for cell survival rate higher than compound 21: difference vs compound 21; for cell survival rate higher than compound 23: difference vs compound 23; for cytotoxicity reduced compared with YK-411: rounded summary statement vs YK-411
# Summary of the method: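 293T cells seeded at 10,000 cells/well, cultured overnight, then exposed 24 h to LNP carrying 1.5 μg Fluc-mRNA (cationic:neutral:structured:PEG-type lipid 49:10:39.5:1.5) or Lipofectamine 3000. Viability read by CCK-8, 1 h incubation, absorbance at 450 nm.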
# 293T cells [2] = assay: Cell transfection test of LNP formulation of eGFP-mRNA (optimization of preparation conditions); settings: for transfection efficiency at different molar ratios of polymer-conjugated lipid DMG-PEG2000 to carrier: 0.5% to 15%; for transfection effect at different molar ratios of cationic lipid, neutral lipid, structured lipid and polymer-conjugated lipid: 75:5:15:5 to 25:5:65:5
# Experimental: The cationic lipid compound YK-407 synthesized in Example 1 was dissolved in ethanol with DSPC (AVT (Shanghai) Pharmaceutical Technology Co., Ltd.), cholesterol (AVT (Shanghai) Pharmaceutical Technology Co., Ltd.) and DMG-PEG2000 according to a molar ratio of 49:10:39.5:1.5, respectively, to prepare an ethanol lipid solution. The ethanol lipid solution was quickly added to citrate buffer (pH=4-5) by ethanol injection method, and vortexed for 30s for later use. eGFP-mRNA was diluted in citrate buffer (pH=4-5) to give an aqueous mRNA solution. A certain volume of liposome solution and mRNA aqueous solution were used to prepare liposomes at weight ratios of total lipids to mRNA of 5:1, 10:1, 15:1, 20:1, 30:1 and 35:1, respectively. The mixtures were sonicated at 25° C. for 15 min (with an ultrasonic frequency of 40 kHz and an ultrasonic power of 800 W). The resulted liposomes were diluted to 10 times volume with PBS, and then ultrafiltered with a 300KDa ultrafiltration tube to remove ethanol. Then the volume was fixed to a certain volume with PBS to give an LNP formulation encapsulating eGFP-mRNA using cationic lipid YK-407/DSPC/cholesterol/DMG-PEG2000 (49:10:39.5:1.5 in molar percentage).
# The LNP formulation encapsulating eGFP-mRNA was prepared according to the method in 1, wherein the molar ratios of cationic lipid YK-407 to neutral lipid DSPC were 1:1, 3:1, 3.5:1, 4:1, 4.5:1, 4.9:1, 10:1, 15:1 and 20:1.
# The LNP formulation encapsulating eGFP-mRNA was prepared according to the method in 1, wherein the cationic lipid in the carrier was YK-407, and the molar ratios of the polymer-conjugated lipid DMG-PEG2000 to the carrier were 0.5%, 1.5%, 3.5%, 5%, 10% and 15%, respectively.
# The LNP formulation encapsulating eGFP-mRNA was prepared according to the method in 1, wherein the molar ratios of cationic lipid YK-407, neutral lipid DSPC, structured lipid cholesterol and polymer-conjugated lipid DMG-PEG2000 were 75:5:15:5, 49:10:39.5:1.5, 45:10:43.5:1.5, 45:25:20:10, 40:10:48.5:1.5, 35:10:53.5:1.5 and 25:5:65:5, respectively.
# Cell recovery and passage: 293T cells were recovered, cultured in a culture dish, and passaged to the required number of cells.
# Seeding plate: The cells in the culture dish were digested and counted. Cells were spread in a 96-well plate at 10,000 cells per well and in a 12-well plate at 150,000 cells per well. Cells were cultured overnight until the cells adhered to the wall.
# Cell transfection test: The LNP formulation containing 1.5 μg of eGFP-mRNA prepared in Example 2 (the cationic lipid in the carrier was YK-407) and the Lipofectamin 3000 formulation of eGFP-mRNA were added respectively to the cell culture medium of the 12-well plate, and further incubated for 24 hours. The transfection efficiency of different samples was then investigated according to the fluorescence intensity by observing with a fluorescence microscope.
# 293T cells [3] = assay: Fluorescent detection of Fluc-mRNA (cell transfection efficiency of LNP formulations); settings: for Relative light unit (RLU): LNP with 0.3 μg Fluc-mRNA, 96-well plate, 24 hours; for cell transfection efficiency, times that of YK-415: ratio vs YK-415; for cell transfection efficiency, times that of YK-417: ratio vs YK-417; for cell transfection efficiency, times that of YK-418: ratio vs YK-418; for cell transfection efficiency, times that of YK-424: ratio vs YK-424; for RLU value, times that of compound 21: ratio vs compound 21; for RLU value, times that of compound 23: ratio vs compound 23
smiles,measurement,setting,value
"CCCCCCCCC(CCCCCCCC)OC(=O)CCCCCN(CCO)CCN(CCO)CCCCCC(=O)OC(CCCCCCCC)CCCCCCCC [YK-401, di(heptadecan-9-yl) 6,6′-(ethane-1,2-diyl-bis((2-hydroxyethyl)azanediyl))dihexanoate]",Cell survival rate,293T cells [1],75.21%
same,cell survival rate higher than ALC-0315,293T cells [1],28.00%
same,cell survival rate higher than HIMA,293T cells [1],10.94%
same,cell survival rate higher than Lipofectamine 3000,293T cells [1],53.55%
same,cell survival rate higher than SM-102,293T cells [1],4.31% and 7.31%
same,cell survival rate higher than YK-404,293T cells [1],33.09%
same,cell survival rate higher than YK-405,293T cells [1],33.35%
same,cell survival rate higher than YK-406,293T cells [1],50.25%
same,cell survival rate higher than YK-408,293T cells [1],32.90%
same,cell survival rate higher than YK-409,293T cells [1],29.10%
same,cell survival rate higher than YK-410,293T cells [1],30.29%
same,cell survival rate higher than YK-411,293T cells [1],58.88%
same,cell survival rate higher than YK-412,293T cells [1],21.07%
same,cell survival rate higher than YK-413,293T cells [1],28.01%
same,cell survival rate higher than YK-414,293T cells [1],46.46%
same,cell survival rate higher than YK-415,293T cells [1],14.05%
same,cell survival rate higher than YK-416,293T cells [1],34.24%
same,cell survival rate higher than YK-417,293T cells [1],53.87%
same,cell survival rate higher than YK-418,293T cells [1],54.16%
same,cell survival rate higher than YK-419,293T cells [1],36.29%
same,cell survival rate higher than YK-420,293T cells [1],39.62%
same,cell survival rate higher than YK-421,293T cells [1],39.50%
same,cell survival rate higher than YK-424,293T cells [1],47.28%
same,cell survival rate higher than compound 21,293T cells [1],7.37%
same,cell survival rate higher than compound 23,293T cells [1],6.10%
same,cytotoxicity reduced compared with YK-411,293T cells [1],50%
same,transfection efficiency at different molar ratios of polymer-conjugated lipid DMG-PEG2000 to carrier,293T cells [2],same results
same,"transfection effect at different molar ratios of cationic lipid, neutral lipid, structured lipid and polymer-conjugated lipid",293T cells [2],same results
same,Relative light unit (RLU),293T cells [3],5609550 RLU
same,"cell transfection efficiency, times that of YK-415",293T cells [3],18.82
same,"cell transfection efficiency, times that of YK-417",293T cells [3],47.83
same,"cell transfection efficiency, times that of YK-418",293T cells [3],50.42
same,"cell transfection efficiency, times that of YK-424",293T cells [3],1.95
same,"RLU value, times that of compound 21",293T cells [3],3.71
same,"RLU value, times that of compound 23",293T cells [3],4.00
CCCCCCCCC(CCCCCCCC)C(=O)OCCCCCCN(CCO)CCN(CCO)CCCCCCOC(=O)C(CCCCCCCC)CCCCCCCC [YK-402],Cell survival rate,293T cells [1],72.70%
same,cell survival rate higher than ALC-0315,293T cells [1],25.49%
same,cell survival rate higher than HIMA,293T cells [1],8.43%
same,cell survival rate higher than Lipofectamine 3000,293T cells [1],51.04%
same,cell survival rate higher than SM-102,293T cells [1],4.80%
same,cell survival rate higher than YK-404,293T cells [1],30.58%
same,cell survival rate higher than YK-405,293T cells [1],30.84%
same,cell survival rate higher than YK-406,293T cells [1],47.74%
same,cell survival rate higher than YK-408,293T cells [1],30.39%
same,cell survival rate higher than YK-409,293T cells [1],26.59%
same,cell survival rate higher than YK-410,293T cells [1],27.78%
same,cell survival rate higher than YK-411,293T cells [1],56.37%
same,cell survival rate higher than YK-412,293T cells [1],18.56%
same,cell survival rate higher than YK-413,293T cells [1],25.50%
same,cell survival rate higher than YK-414,293T cells [1],43.95%
same,cell survival rate higher than YK-415,293T cells [1],11.54%
same,cell survival rate higher than YK-416,293T cells [1],31.73%
same,cell survival rate higher than YK-417,293T cells [1],51.36%
same,cell survival rate higher than YK-418,293T cells [1],51.65%
same,cell survival rate higher than YK-419,293T cells [1],33.78%
same,cell survival rate higher than YK-420,293T cells [1],37.11%
same,cell survival rate higher than YK-421,293T cells [1],36.99%
same,cell survival rate higher than YK-424,293T cells [1],44.77%
same,cell survival rate higher than compound 21,293T cells [1],4.86%
same,cell survival rate higher than compound 23,293T cells [1],3.59%
same,cytotoxicity reduced compared with YK-411,293T cells [1],50%
same,transfection efficiency at different molar ratios of polymer-conjugated lipid DMG-PEG2000 to carrier,293T cells [2],same results
same,"transfection effect at different molar ratios of cationic lipid, neutral lipid, structured lipid and polymer-conjugated lipid",293T cells [2],same results
same,Relative light unit (RLU),293T cells [3],5044102 RLU
same,"cell transfection efficiency, times that of YK-415",293T cells [3],16.93
same,"cell transfection efficiency, times that of YK-417",293T cells [3],43.01
same,"cell transfection efficiency, times that of YK-418",293T cells [3],45.34
same,"cell transfection efficiency, times that of YK-424",293T cells [3],1.75
same,"RLU value, times that of compound 21",293T cells [3],3.34
same,"RLU value, times that of compound 23",293T cells [3],3.60
"CCCCCCCCC(CCCCCCCC)OC(=O)CCCCCCCN(CCO)CCN(CCO)CCCCCCCC(=O)OC(CCCCCCCC)CCCCCCCC [YK-403, di(heptadecan-9-yl) 8, 8′-(ethane-1,2-diyl-bis((2-hydroxyethyl)azanediyl))dioctanoate]",Cell survival rate,293T cells [1],70.76%
same,cell survival rate higher than ALC-0315,293T cells [1],23.55%
same,cell survival rate higher than HIMA,293T cells [1],6.49%
same,cell survival rate higher than Lipofectamine 3000,293T cells [1],49.10%
same,cell survival rate higher than SM-102,293T cells [1],2.86%
same,cell survival rate higher than YK-404,293T cells [1],28.64%
same,cell survival rate higher than YK-405,293T cells [1],28.90%
same,cell survival rate higher than YK-406,293T cells [1],45.80%
same,cell survival rate higher than YK-408,293T cells [1],28.45%
same,cell survival rate higher than YK-409,293T cells [1],24.65%
same,cell survival rate higher than YK-410,293T cells [1],25.84%
same,cell survival rate higher than YK-411,293T cells [1],54.43%
same,cell survival rate higher than YK-412,293T cells [1],16.62%
same,cell survival rate higher than YK-413,293T cells [1],23.56%
same,cell survival rate higher than YK-414,293T cells [1],42.01%
same,cell survival rate higher than YK-415,293T cells [1],9.60%
same,cell survival rate higher than YK-416,293T cells [1],29.79%
same,cell survival rate higher than YK-417,293T cells [1],49.42%
same,cell survival rate higher than YK-418,293T cells [1],49.71%
same,cell survival rate higher than YK-419,293T cells [1],31.84%
same,cell survival rate higher than YK-420,293T cells [1],35.17%
same,cell survival rate higher than YK-421,293T cells [1],35.05%
same,cell survival rate higher than YK-424,293T cells [1],42.83%
same,cell survival rate higher than compound 21,293T cells [1],2.92%
same,cell survival rate higher than compound 23,293T cells [1],1.65%
same,cytotoxicity reduced compared with YK-411,293T cells [1],50%
same,transfection efficiency at different molar ratios of polymer-conjugated lipid DMG-PEG2000 to carrier,293T cells [2],same results
same,"transfection effect at different molar ratios of cationic lipid, neutral lipid, structured lipid and polymer-conjugated lipid",293T cells [2],same results
same,Relative light unit (RLU),293T cells [3],5249304 RLU
same,"cell transfection efficiency, times that of YK-415",293T cells [3],17.61
same,"cell transfection efficiency, times that of YK-417",293T cells [3],44.76
same,"cell transfection efficiency, times that of YK-418",293T cells [3],47.18
same,"cell transfection efficiency, times that of YK-424",293T cells [3],1.82
same,"RLU value, times that of compound 21",293T cells [3],3.47
same,"RLU value, times that of compound 23",293T cells [3],3.74
